# Data reported in patent US8431564B2 (Merck Sharp & Dohme B.V., priority 2009, dated 2013).
# Target: T1, human FSH receptor (Homo sapiens, UniProt P23945)
# T1 construct: expressed in transfected cells; host or cells: CHO (Chinese Hamster Ovary) cells, stably transfected, cotransfected with CRE-luciferase reporter
# T1 sequence (P23945 18-695): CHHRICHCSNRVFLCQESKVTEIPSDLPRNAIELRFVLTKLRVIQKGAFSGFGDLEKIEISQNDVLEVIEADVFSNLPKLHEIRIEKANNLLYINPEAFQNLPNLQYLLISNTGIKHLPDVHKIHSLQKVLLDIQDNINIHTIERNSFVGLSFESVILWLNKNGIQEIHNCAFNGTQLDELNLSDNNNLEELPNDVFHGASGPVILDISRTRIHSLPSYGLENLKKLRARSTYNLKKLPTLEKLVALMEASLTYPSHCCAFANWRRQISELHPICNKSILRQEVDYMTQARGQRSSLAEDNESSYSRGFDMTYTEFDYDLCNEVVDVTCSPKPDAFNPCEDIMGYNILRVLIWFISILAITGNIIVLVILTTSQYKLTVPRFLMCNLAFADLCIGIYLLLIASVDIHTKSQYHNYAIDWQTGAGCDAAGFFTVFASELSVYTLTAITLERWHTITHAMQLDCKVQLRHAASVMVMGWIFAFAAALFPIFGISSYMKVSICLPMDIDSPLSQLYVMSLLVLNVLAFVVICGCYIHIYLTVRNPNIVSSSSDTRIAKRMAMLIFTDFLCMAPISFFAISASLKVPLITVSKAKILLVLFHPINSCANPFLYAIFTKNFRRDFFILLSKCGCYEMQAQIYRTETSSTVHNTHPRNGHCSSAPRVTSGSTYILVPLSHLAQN
# Experiment: Agonistic activity at the human FSH receptor expressed in CHO cells (CRE-luciferase reporter)
# Assay type: cell-based
# Settings: CHO cells stably transfected with human FSH receptor and CRE/luciferase reporter; 4 hours incubation; pEC50 is -log EC50
# Excerpt: The term EC50 means the concentration of the test compound that elicits half-maximal (50%) stimulation compared to the compound's maximally attainable effect. pEC50 is the negative log of EC50. The values can be determined e.g. in a cell line transfected with a FSH receptor gene and cotransfected with a cAMP responsive element/promoter directing the expression of a reporter gene. For the determination a software program such as MathIQ (version 2.0, ID Business Solutions Limited) can be used.
# Agonistic activity of the compounds at the human FSH receptor was determined in Chinese Hamster Ovary (CHO) cells stably transfected with the human FSH receptor and cotransfected with a cAMP responsive element (CRE)/promotor directing the expression of a firefly luciferase reporter gene. Binding of the compounds to the Gs protein-coupled FSH receptor will result in an increase of cAMP, which in turn will induce an increased transactivation of the luciferase reporter. Cells (7,500 cells/well of a 384 well plate) were incubated in Dulbecco' minimal essential F12 modified medium (Invitrogen), supplemented with 1 μg/ml bovine insulin, 5 μg/ml human apo-transferrin, 80 U/ml penicillin G and 80 μg/ml streptomycin with the test compounds (concentration between 0.0316 nM and 10.0 μM) in duplicate in a humidified atmosphere (95%) at 5-7% CO2 and 37° C. The final concentration of DMSO was 1%. After 4 hours of incubation, plates were allowed to adjust to room temperature for 1 hour. Then, Luclite (PerkinElmer) solution was added to the wells and cells were allowed to lyse for at least 1 hour at room temperature. Subsequently, luciferase activity was measured in a luminescence counter. The signal is expressed as counts per second (cps). The EC50 (concentration of the test compound that elicits half-maximal (50%) luciferase stimulation compared to the compound's maximally attainable effect) and efficacy values (maximal effect of the test compound as percentage of the maximal effect of recombinant human FSH) of the compounds were determined using the software program MathIQ (version 2.0, ID Business Solutions Limited). pEC50 data (pEC50 is −log EC50) are indicated at the synthesis examples.
row,hFSHRago (CHO luc) pEC50,Structure (SMILES)
1,7.19,COc1cc2c(cc1-c1ccn(C)n1)-c1c(-c3cccs3)c3c(n1CC2)C(=O)N(C(C)(C)C)CCC3 [Compound 4h]
2,7.86,CC(C)(C)N1CCCc2c(-c3cccs3)c3n(c2C1=O)CCc1ccc(-c2cnccn2)cc1-3 [Compound 4i]
3,8.51,"COc1cc2c(cc1-c1cccnc1)-c1c(-c3cncs3)c3c(n1CC2)C(=O)N(C(C)(C)C)CCCC3 [Compound 11j, 9-tert-butyl-3-methoxy-2-pyridin-3-yl-14-(1,3-thiazol-5-yl)-5,6,10,11,12,13-hexahydroazocino[4′,3′:4,5]pyrrolo[2,1-a]isoquinolin-8(9H)-one]"

# Same assay, conditions: CHO cells stably transfected with human FSH receptor and CRE/luciferase reporter; 4 hours incubation; pEC50 is -log EC50; read-out: hFSHRago (CHO luc) pEC50 (converted)
row,EC50 [nM],Structure (SMILES)
1,100,"COc1cc2c(cc1[N+](=O)[O-])-c1c(-c3cccs3)c3c(n1CC2)C(=O)N(C(C)(C)C)CC3 [Compound 1i, 9-tert-butyl-3-methoxy-2-nitro-12-(2-thienyl)-5,6,10,11-tetrahydropyrido[4′,3′:4,5]pyrrolo[2,1-a]isoquinolin-8(9H)-one]"
2,34.7,"COc1cc2c(cc1[N+](=O)[O-])-c1c(-c3cccs3)c3c(n1CC2)C(=O)N(C(C)(C)C)CCC3 [Compound 2h, 9-tert-butyl-2-nitro-3-methoxy-13-(2-thienyl)-5,6,9,10,11,12-hexahydro-8H-azepino[4′,3′:4,5]pyrrolo[2,1-a]isoquinolin-8-one]"
3,36.3,"CCn1nnc(-c2cc3c(cc2OC)CCn2c4c(c(-c5cccs5)c2-3)CCCN(C(C)(C)C)C4=O)n1 [Compound 3e, 9-tert-butyl-2-(2-ethyl-2H-tetrazol-5-yl)-3-methoxy-13-(2-thienyl)-5,6,9,10,11,12-hexahydro-8H-azepino[4′,3′:4,5]pyrrolo[2,1-a]isoquinolin-8-one]"
4,126,"COc1cc2c(cc1NC(=O)C(C)C)-c1c(-c3cccs3)c3c(n1CC2)C(=O)N(C(C)(C)C)CCC3 [Compound 3f, 9-tert-butyl-2-isobutyramido-3-methoxy-13-(2-thienyl)-5,6,9,10,11,12-hexahydro-8H-azepino[4′,3′:4,5]pyrrolo[2,1-a]isoquinolin-8-one]"
5,11.5,"COc1cc2c(cc1-c1ncco1)-c1c(-c3cccs3)c3c(n1CC2)C(=O)N(C(C)(C)C)CCC3 [Compound 4f, 9-tert-butyl-2-(oxazol-2-yl)-3-methoxy-13-(2-thienyl)-5,6,9,10,11,12-hexahydro-8H-azepino[4′,3′:4,5]pyrrolo[2,1-a]isoquinolin-8-one]"
6,4.17,"COc1cc2c(cc1-c1cccnc1)-c1c(-c3cccs3)c3c(n1CC2)C(=O)N(C(C)(C)C)CCC3 [Compound 4g, 9-tert-butyl-2-(pyridin-3-yl)-3-methoxy-13-(2-thienyl)-5,6,9,10,11,12-hexahydro-8H-azepino[4′,3′:4,5]pyrrolo[2,1-a]isoquinolin-8-one]"
7,2.82,"COc1cc2c(cc1-c1cccnc1)-c1c(-c3cccs3)c3c(n1CC2)C(=O)N(C(C)(C)C)CCCOC3 [Compound 7l, 9-tert-butyl-3-methoxy-2-pyridin-3-yl-15-(2-thienyl)-5,6,9,10,11,12-hexahydro[1,5]oxazonino[8′,7′:4,5]pyrrolo[2,1-a]isoquinolin-8(14H)-one]"
8,17.8,"COc1cc2c(cc1-c1cnccn1)-c1c(-c3cccs3)c3c(n1CC2)C(=O)N(C(C)(C)C)CCCOC3 [Compound 7m, 9-tert-butyl-3-methoxy-2-pyrazin-2-yl-15-(2-thienyl)-5,6,9,10,11,12-hexahydro[1,5]oxazonino[8′,7′:4,5]pyrrolo[2,1-a]isoquinolin-8(14H)-one]"
9,14.1,"COc1cc2c(cc1-c1cccnc1)-c1c(-c3cncs3)c3c(n1CC2)C(=O)N(C(C)(C)C)CCCOC3 [Compound 8f, 9-tert-butyl-3-methoxy-2-pyridin-3-yl-15-(1,3-thiazol-5-yl)-5,6,9,10,11,12-hexahydro[1,5]oxazonino[8′,7′:4,5]pyrrolo[2,1-a]isoquinolin-8(14H)-one]"
10,120,"COc1cc2c(cc1-c1cnccn1)-c1c(-c3cncs3)c3c(n1CC2)C(=O)N(C(C)(C)C)CCCOC3 [Compound 8g, 9-tert-butyl-3-methoxy-2-pyrazin-2-yl-15-(1,3-thiazol-5-yl)-5,6,9,10,11,12-hexahydro[1,5]oxazonino[8′,7′:4,5]pyrrolo[2,1-a]isoquinolin-8(14H)-one]"
11,5.25,"COc1cc2c(cc1-c1cccnc1)-c1c(-c3cccs3)c3c(n1CC2)C(=O)N(C(C)C)CCN(C(C)=O)C3 [Compound 10p, 12-acetyl-9-isopropyl-3-methoxy-2-pyridin-3-yl-14-(2-thienyl)-5,6,10,11,12,13-hexahydro[1,4]diazocino[6′,7′:4,5]pyrrolo[2,1-a]isoquinolin-8(9H)-one]"
12,257,"COc1cc2c(cc1-c1c(C)nn(C)c1C)-c1c(-c3cccs3)c3c(n1CC2)C(=O)N(C(C)C)CCNC3 [Compound 10q, 9-isopropyl-3-methoxy-2-(1,3,5-trimethyl-1H-pyrazol-4-yl)-14-(2-thienyl)-5,6,10,11,12,13-hexahydro[1,4]diazocino[6′,7′:4,5]pyrrolo[2,1-a]isoquinolin-8(9H)-one]"
13,162,"COc1cc2c(cc1-c1c(C)nn(C)c1C)-c1c(-c3cccs3)c3c(n1CC2)C(=O)N(C(C)C)CCN(C(C)=O)C3 [Compound 10r, 12-acetyl-9-isopropyl-3-methoxy-14-(2-thienyl)-2-(1,3,5-trimethyl-1H-pyrazol-4-yl)-5,6,10,11,12,13-hexahydro[1,4]diazocino[6′,7′:4,5]pyrrolo[2,1-a]isoquinolin-8(9H)-one]"
14,5010,"COc1cc2c(cc1-c1c(C)nn(C)c1C)-c1c(-c3cccs3)c3c(n1CC2)C(=O)N(C(C)C)CCN(C(=O)C(C)C)C3 [Compound 10s, 12-isobutyryl-9-isopropyl-3-methoxy-14-(2-thienyl)-2-(1,3,5-trimethyl-1H-pyrazol-4-yl)-5,6,10,11,12,13-hexahydro[1,4]diazocino[6′,7′:4,5]pyrrolo[2,1-a]isoquinolin-8(9H)-one]"
15,977,"COc1cc2c(cc1-c1c(C)nn(C)c1C)-c1c(-c3cccs3)c3c(n1CC2)C(=O)N(C(C)C)CCN(C(=O)CCC(F)(F)F)C3 [Compound 10t, 9-isopropyl-3-methoxy-14-(2-thienyl)-12-(4,4,4-trifluorobutanoyl)-2-(1,3,5-trimethyl-1H-pyrazol-4-yl)-5,6,10,11,12,13-hexahydro[1,4]diazocino[6′,7′:4,5]pyrrolo[2,1-a]isoquinolin-8(9H)-one]"
16,759,"COc1cc2c(cc1-c1cccnc1)-c1c(-c3cccs3)c3c(n1CC2)C(=O)N(C(C)C)CCN(C(=O)C(C)C)C3 [Compound 10w, 9-isopropyl-3-methoxy-12-isobutyryl-14-(2-thienyl)-2-pyridin-3-yl-5,6,10,11,12,13-hexahydro[1,4]diazocino[6′,7′:4,5]pyrrolo[2,1-a]isoquinolin-8(9H)-one]"
17,1260,"COc1cc2c(cc1-c1ncco1)-c1c(-c3cccs3)c3c(n1CC2)C(=O)N(C(C)C)CCN(C(=O)C(C)C)C3 [Compound 10x, 9-isopropyl-3-methoxy-12-isobutyryl-14-(2-thienyl)-2-oxazol-2-yl-5,6,10,11,12,13-hexahydro[1,4]diazocino[6′,7′:4,5]pyrrolo[2,1-a]isoquinolin-8(9H)-one]"

row,Structure (SMILES),EC50 [nM]
1,COc1cc2c(cc1OC(C)C)-c1c(-c3cccs3)c3c(n1CC2)C(=O)N(C(C)(C)C)CCC3 [Compound 6e],11
2,COc1cc2c(cc1OC(C)C)-c1c(-c3cccs3)c3c(n1CC2)C(=O)N(C(C)C)CCC3 [Compound 6f],50.1
